Source: patent US12128079B2, “Enteric aerobization therapy” (LPOXY THERAPEUTICS, INC., priority 2021, dated 2024)
“Also recorded” adds a separate entry of the source. Read-outs that look alike come from different tables or passages of the source.

Tests used:
[1] = up to the maximum bolus tested, 200 microliters every 6 hours (8 mL/kg per bolus; 32 mL/kg/day)
Experimental: In a separate experiment using the above conditions the tolerance of bolus injection of 100% oxygen gas was tested.

[2] = system: Clostridioides difficile ATCC 43255; conditions: for clinical severity / clinical observations versus infection control group: FIGS. 7-10; for animals showing clinical signs of infection (recurrence) in the 2nd week after inoculation and treatment: days 8-14; for survival: mice followed 14 days after inoculation, treatment day 0 to day 4; for onset of action / cure rate: mouse CDI model; for cure rate: 14 days after inoculation
From the text: Thirty C57BL/6 female mice (18-22 g) fitted with duodenal catheters externalized and fitted with access button ports were purchased from Charles River Laboratories and singly housed in a temperature and humidity-controlled room with a 12-hour light cycle. The mice were divided into 3 groups of 10. All procedures used in these experimental protocols were in compliance with the Animal Welfare Act, the Guide for the Care and Use of Laboratory Animals, and the Office of Laboratory Animal Welfare.
The mice were pretreated with an antibiotic cocktail in their drinking water for 8 consecutive days. This antibiotic cocktail was composed of 1% glucose, 500 mcg/mL kanamycin, 44 mcg/mL gentamicin, 1062.5 units per milliliter colistin, 269 mcg/mL metronidazole, 156 mcg/mL ciprofloxacin, 100 mcg/mL ampicillin, and 56 mcg/mL vancomycin. The antibiotic cocktail and drinking water were replaced every 2 to 3 days. Five days prior to infection the antibiotic water was removed and normal drinking water was provided to the animals. Three days prior to infection the animals received a single dose of clindamycin 10 mg per kilogram via oral administration in a volume of 10 mL per kilogram.
On study Day 0 mice were inoculated with the bacterial suspension of 5×10^5 CFU Clostridioides difficile ATCC 43255 via oral gavage. Eight hours after inoculation administration of vehicle, antibiotic control, and test article was initiated according to the following. The vehicle a.k.a. infection control group of 10 mice received 80 μL per hour 100% pure nitrogen gas via duodenal catheter. The infection control group of 10 mice received 50 mg/kg vancomycin via oral gavage once daily. […] Administration was continued from study day 0 to study day 4, a total of 5 days. The mice were followed for 14 days after inoculum recording daily weights and clinical observations. Animals that appeared severely moribund were euthanized. At the end of the study all animals were humanely euthanized.

SMILES: O=O [EAT, oxygen]
- adverse effects of bolus injection [1]: No adverse effects were observed
- clinical severity / clinical observations versus infection control group [2]: fewer sick animals compared to the infection control group; also recorded: mildly ill compared to the infection control group
- clinical severity / clinical observations versus infection control group ([2]; listed as Enteric aerobization therapy): reduces the severity of disease, accelerates recovery
- animals showing clinical signs of infection (recurrence) in the 2nd week after inoculation and treatment [2]: no recurrent infections
- adverse effects due to gas infusion ([2]; infusion via duodenal catheter 3.2 mL/kg/hr, 76.8 mL/kg/day): no adverse effects
- survival [2]: 100%
- onset of action [2]: slower onset of action
- cure rate [2]: 100%

SMILES: CN[C@H](CC(C)C)C(=O)N[C@H]1C(=O)N[C@@H](CC(N)=O)C(=O)N[C@H]2C(=O)N[C@H]3C(=O)N[C@H](C(=O)N[C@H](C(=O)O)c4cc(O)cc(O)c4-c4cc3ccc4O)[C@H](O)c3ccc(c(Cl)c3)Oc3cc2cc(c3O[C@@H]2O[C@H](CO)[C@@H](O)[C@H](O)[C@H]2O[C@H]2C[C@](C)(N)[C@H](O)[C@H](C)O2)Oc2ccc(cc2Cl)[C@H]1O [vancomycin, reference compound]
- animals showing clinical signs of infection (recurrence) in the 2nd week after inoculation and treatment [2]: 70%
- animals showing clinical signs of infection (recurrence) in the 2nd week after inoculation and treatment ([2]; listed as antibiotic control group): Seventy
- survival [2]: 100%
- onset of action [2]: more rapid onset of action
- cure rate [2]: 30%
